Five molecules from patent publication US10710988B2, “Piperazine derivative” (Astellas Pharma Inc., priority 2016, dated 2020) can be followed below.

The structures appear in SMILES notation. Read-outs that look alike come from different tables or passages of the source.

For orientation: EC50 means the concentration giving half of the maximal effect. Higher therefore signals a need for much substance.

One test deals with T1, human MC1 receptor (Homo sapiens, UniProt Q01726).
T1 construct: expressed in transfected cells; host or cells: FreeStyle 293-F cells (transient, electroporation)
T1 sequence (Q01726 whole entry): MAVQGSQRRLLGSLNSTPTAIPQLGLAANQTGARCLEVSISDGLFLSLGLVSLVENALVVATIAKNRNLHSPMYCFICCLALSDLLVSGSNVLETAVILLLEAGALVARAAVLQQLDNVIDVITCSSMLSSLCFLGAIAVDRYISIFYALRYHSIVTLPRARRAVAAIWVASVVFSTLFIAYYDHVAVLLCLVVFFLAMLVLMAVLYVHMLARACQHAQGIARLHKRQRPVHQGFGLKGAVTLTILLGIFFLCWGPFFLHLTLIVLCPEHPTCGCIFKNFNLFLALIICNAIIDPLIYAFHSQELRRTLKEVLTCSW
As to the kind of experiment: Human MC1 receptor activation, cAMP production in cells transiently expressing the receptor. Type of test: cell-based. To be noted: FreeStyle 293-F cells expressing human MC1 receptor, α-MSH maximum = 100%. From the text: (1) Construction of Human MC Receptor-Expressing Vector
A human MC4 receptor gene (GenBank Accession No.: NM_005912.2), a human MC1 receptor gene (GenBank Accession No.: NM_002386.3), or a human MC3 receptor gene (GenBank Accession No.: NM_019888.3) was introduced into an expression vector pcDNA™ 3.1N/V5-His TOPO (registered trademark) (Thermo Fisher Scientific Inc).
(2) Construction of Cells Transiently Expressing Human MC Receptor
An expression vector for a human MC4, MC1, or MC3 receptor was introduced into FreeStyle™ 293-F cells (Thermo Fisher Scientific Inc., product number: R790-07). For the introduction, electroporation was employed. That is, 1×10^7 FreeStyle™ 293-F cells were suspended in 80 μL of an Electroporation Buffer (Thermo Fisher Scientific Inc., product number: B201-100), and 20 μg of the expression vector was added thereto. The resultant was put into a cuvette (OC-100 Processing Assembly, MaxCyte, Inc.) and electroporated with MaxCyte STX (registered trademark) (MaxCyte, Inc.). The cells were cultured for a day, suspended in a Cell Banker (registered trademark) 1 (TAKARA BIO INC. or JUJI FIELD Inc., product number: BLC-1), and stored frozen until they were used.
(3) Measurement of Amount of cAMP Production
Measurement was carried out by using a LANCE (registered trademark) Ultra cAMP Kit (PerkinElmer, Inc.) in accordance with the attached instructions. That is, after dissolution in DMSO, the test compound (a final concentration of 1 pM to 30 μM) diluted with an assay buffer (Hank's balanced salt solution, 5 mM 4-(2-hydroxyethyl)-1-piperazineethanesulfonic acid (HEPES), 0.5 mM 3-isobutyl-1-methylxanthine (IBMX), 0.1% bovine serum albumin, pH 7.4), or α-MSH (Bachem Inc., a final concentration of 1 pM to 30 μM) was added to OptiPlate-384 (PerkinElmer, Inc.). Furthermore, the suspension of the cells transiently expressing the human MC4, MC1, or MC3 receptor prepared using the assay buffer was added thereto at 1,000 cells/well, and then left to stand at room temperature for about 1 hour. Thereafter, an Eu-cAMP tracer solution and an ULight™-anti-cAMP solution were added thereto, and then the resulting solution was left to stand at room temperature for about 1 hour. The amount of cAMP was calculated using EnVision (registered trademark) (PerkinElmer Inc.).
For the agonistic activity, the efficacy (EC50 (μM)) was calculated by a non-linear regression method with a Sigmoid-Emax model, by defining the maximum reaction using α-MSH as 100% and the reaction using the vehicle alone as 0%, respectively.
In general terms: Cyclic AMP is a second messenger, typically raised through Gs and lowered through Gi signalling.

The subject of test [1] is phenylephrine-induced urethral pressure increase. The experiment in a line: Effect on rat urethral pressure (phenylephrine-induced urethral pressure increase). The test is classed as in vivo. The settings on record: read-out: ID40. As to the method:
The present Test Example was performed by partially modifying the technique reported as a testing system for evaluating a urethral resistance-reducing action (European Journal of Pharmacology, 679, 127-131 (2012)). Male Wistar rats (Charles River Laboratories Japan, Inc.) were anesthetized with urethane (1.2 g/kg ip), and immobilized in a supine position. The midline incision was performed in the lower abdominal portion such that the bladder was exposed. The bladder apex was incised, and from the incision site, a microchip pressure transducer catheter (3.5 Fr, Millar, Inc) was inserted and implanted into the inside of the urethra. In addition, a cannula for drug administration was implanted into the femoral vein. After the urethral pressure was stabilized, phenylephrine hydrochloride (Sigma-Aldrich Co. LLC., 30 μg/kg) was intravenously administered to induce an increase in the urethral pressure. At an interval of about 30 minutes, the above operation was repeated twice or more so as to confirm the stability of the phenylephrine hydrochloride-induced urethral pressure increasing reaction. Then, a test compound (dissolved in 20% dimethyl acetamide, 10% Cremophor (registered trademark), and 70% physiological saline) was intravenously administered, and after 5 minutes, phenylephrine hydrochloride was administered. The procedure of the administration of the test compound and the administration of phenylephrine hydrochloride was repeated at an interval of about 30 minutes, and 3 to 5 doses of the test compound was evaluated (the test compound was administered at increasing doses). The obtained data was introduced into a personal computer through PowerLab (registered trademark) (ADInstruments, Inc.) and analyzed using LabChart (registered trademark) (ADInstruments, Inc.). For the evaluation, the value (AUC value, mmHg-s) of the area under the urethral pressure for one minute before and after administration of phenylephrine hydrochloride was determined to calculate the difference (ΔAUC value) between the AUC value before the administration of phenylephrine hydrochloride and the AUC value after the administration of phenylephrine hydrochloride. The ΔAUC value obtained before administering the test compound was regarded as being 100%, and based on this, the ratio (reaction rate) of the ΔAUC value of the test compound at each dose was calculated. The dose at which the obtained reaction rate became 60% (40% as an inhibition rate) was defined as ID40, and the ID40 values of the test compounds were calculated by non-linear regression.

In test [2] the test system is drug-induced voiding dysfunction model rat. The experiment in a line: Effect on drug-induced voiding dysfunction model rat. To be noted: male SD rats; atropine sulfate + midodrine hydrochloride induced voiding dysfunction; inhibition of decrease in voiding efficiency or increase of residual urine; P<0.05. The test is classed as in vivo. From the text:
Male Sprague Dawley (SD) rats (Japan SLC, Inc.) were anesthetized with isoflurane and a cannula was placed in the bladder, the stomach, and the jugular vein. Then, the rats were awakened in a Baellman cage (Natsume Seisakusho Co., Ltd.). After a post-operative stabilization period, physiological saline was continuously infused into the bladder by an infusion pump (Terumo Corporation, product number: TE-331 S, STC-528) to induce voiding. Infusion of the physiological saline was stopped as soon as the voiding began, and the amount of the voided urine was measured using an electronic top-loading balance installed under the Ballman cage. After voiding ended, the residual urine was collected by gravity through the cannula implanted into the bladder and weighed, and the weight was taken as the amount of the residual urine. Furthermore, the intravesical pressure was measured by a pressure transducer (Nihon Kohden Corporation, product numbers: DX-100) through the bladder cannula. The test compound or the vehicle was administered into the stomach, and atropine sulfate (Sigma-Aldrich Co. LLC., 0.01 mg/kg) as an anticholinergic drug and midodrine hydrochloride (Sigma-Aldrich Co. LLC., 0.3 mg/kg) as an a adrenergic receptor agonist were intravenously administered to induce voiding dysfunction. The voiding efficiency (=[voided amount/(voided amount+amount of residual urine)]×100) and the amount of the residual urine before and after the administration of the test compound or the vehicle were measured, and the amount changed was evaluated. The value obtained by the administration of the vehicle and the value obtained by the administration of the test compound were compared in a Dunnett's multiple comparison test with a statistically significant difference (P<0.05), and the minimum dose at which the inhibitory action on a decrease in voiding efficiency or on an increase of the amount of residual urine observed was defined as a minimum effective dose (4 rats per group).

The mark [3] stands for this setting: male Wistar rats, urethane anesthesia, intravenous, dose giving 40% inhibition of phenylephrine-induced urethral pressure ΔAUC.

In turn, `CC(=O)N[C@@H](CC(C)(C)C)C(=O)N1C[C@H](C)N(C(=O)[C@@H]2CN(C(C)(C)C)C[C@H]2c2ccc(F)cc2F)C[C@H]1C.Cl` [Example 4, N-{(2S)-1-[(2R,5S)-4-{[(3 S,4R)-1-tert-butyl-4-(2,4-difluorophenyl)pyrrolidin-3-yl]carbonyl}-2,5-dimethylpiperazin-1-yl]-4,4-dimethyl-1-oxopentan-2-yl}acetamide monohydrochloride] displayed an EC50 on human MC1 receptor of 1000 nM. The ED40 in test [1] (setting [3]) came out at 11 mg/kg. For the same molecule, the “MED (minimum effective dose)” value in test [2] turned out to be 0.01 mg/kg ig.
`CC(=O)N[C@@H](CC(C)C)C(=O)N1CCN(C(=O)[C@@H]2CN(C(C)(C)C)C[C@H]2c2ccc(Cl)cc2F)C[C@H]1C` [Example 5] displayed a concentration for a half-maximal effect (EC50) on human MC1 receptor of 710 nM. Further, in test [1] (iv), the ED40 came to 25 mg/kg. The “MED (minimum effective dose)” value in test [2] amounted to 0.01 mg/kg ig.
As to `CC(=O)N[C@H](C(=O)N1CCN(C(=O)[C@@H]2CN(C(C)(C)C)C[C@H]2c2ccc(F)cc2F)[C@@H](C)C1)C1CCCCC1.Cl` [Example 6, N-{(1S)-2-[(3S)-4-{[(3S,4R)-1-tert-butyl-4-(2,4-difluorophenyl)pyrrolidin-3-yl]carbonyl}-3-methylpiperazin-1-yl]-1-cyclohexyl-2-oxoethyl}acetamide monohydrochloride], the midpoint of the response at human MC1 receptor, the EC50, lay at 2600 nM. In test [1] (setting [3]), the ED40 was 46 mg/kg. Also, the “MED (minimum effective dose)” value in test [2] is listed as 0.03 mg/kg ig.
At human MC1 receptor, `CC(=O)N[C@@H](CC(C)(C)C)C(=O)N1CCN(C(=O)[C@@H]2CN(C(C)(C)C)C[C@H]2c2ccc(F)cc2F)[C@@H](C)C1.Cl` [Example 8] returned an EC50 of 1700 nM. Further, in test [1] (setting [3]), the ED40 was 15 mg/kg. The “MED (minimum effective dose)” value in test [2] stood at 0.01 mg/kg ig.
In the case of `CC(=O)N[C@@H](CC(C)(C)C)C(=O)N1C[C@H](C)N(C(=O)C2CN(C(C)(C)C)CC2c2ccc(F)cc2)C[C@H]1C.Cl` (stereo partly drawn) [Example 11], a half-maximal effect on human MC1 receptor (EC50) was put at 1600 nM. The ED40 in test [1] (setting [3]) came out at 28 mg/kg. For the same molecule, in test [2], the “MED (minimum effective dose)” value amounted to 0.03 mg/kg ig.
